Key:
[1] = target: T1, hAIG1 (Homo sapiens, UniProt Q9NVV5); type: binding
T1 sequence (Q9NVV5 1-238): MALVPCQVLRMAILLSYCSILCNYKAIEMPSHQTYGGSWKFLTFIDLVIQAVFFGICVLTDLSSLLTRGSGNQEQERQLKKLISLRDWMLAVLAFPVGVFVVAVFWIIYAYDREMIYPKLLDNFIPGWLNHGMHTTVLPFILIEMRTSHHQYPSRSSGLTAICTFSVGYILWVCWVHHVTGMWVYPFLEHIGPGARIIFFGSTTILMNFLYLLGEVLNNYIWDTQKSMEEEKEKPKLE

[2] = system: LNCaP cells; assay: in situ 13C,2H-PAHSA hydrolysis; type: cell-based, human; conditions: 5 μM, 4 h, then 2 μM 13C,2H-PAHSA 2 h

With `CCCCCCCCCCC[C@@H](C[C@@H]1OC(=O)[C@H]1CCCCCC)OC(=O)[C@H](CC(C)C)NC=O` [THL, tetrahydrolipstatin] the “inhibition of FP reactivity of AIG1” value [1] was “did not inhibit” and the “reduction in 13C16-PA and 2H19-HSA products (13C,2H-PAHSA hydrolysis) vs DMSO” value [2] was “negligible alterations”.

Reference: publication PMC4837090 (Nature chemical biology, 2016)
